pIC50: −log10 of the molar value.
Legend:
[1] = tested on: A549; assay: Anticancer activity against human A549 cells assessed as reduction in cell growth incubated for 48 hrs by MTT assay; format: functional, cell-based; conditions: A549, 48 h
[2] = tested on: MCF7; assay: Anticancer activity against human MCF7 cells assessed as reduction in cell growth incubated for 48 hrs by MTT assay; format: functional, cell-based; conditions: MCF7, 48 h
[3] = tested on: HeLa; assay: Anticancer activity against human HeLa cells assessed as reduction in cell growth incubated for 48 hrs by MTT assay; format: functional, cell-based
[4] = tested on: HaCaT; assay: Cytotoxic activity against human HaCaT cells assessed as reduction in cell growth incubated for 48 hrs by MTT assay; format: cell-based

Structure (SMILES)	pIC50 [1]	pIC50 [2]	pIC50 [3]	pIC50 [4]
O=Cc1cn(-c2ccccc2)nc1-c1ccc(Cl)cc1	4.53	5.02	4.81	< 4.30
COc1ccc(-c2nn(-c3ccccc3)cc2-c2nc3cc4ccccc4cc3[nH]2)cc1	4.92	5.13	4.91	< 4.30
COc1ccc2[nH]c(-c3cn(-c4ccccc4)nc3-c3ccccc3)nc2c1	5.91	5.80	5.54	< 4.30
COc1ccc(-c2nn(-c3ccccc3)cc2-c2nc3cc(Br)ccc3[nH]2)cc1	5.20	5.74	5.97	< 4.30
Cc1ccc2[nH]c(-c3cn(-c4ccccc4)nc3-c3ccc(Cl)cc3)nc2c1	5.33	5.08	5.27	< 4.30
c1ccc(-c2nn(-c3ccccc3)cc2-c2nc3ccccc3[nH]2)cc1	5.57	5.50	5.81	< 4.30
Clc1ccc(-c2nn(-c3ccccc3)cc2-c2nc3cc(Cl)c(Cl)cc3[nH]2)cc1	4.72	4.32	4.92	< 4.30
O=Cc1cn(-c2ccccc2)nc1-c1ccc(F)cc1	5.06	4.61	4.78	< 4.30
Fc1ccc2[nH]c(-c3cn(-c4ccccc4)nc3-c3ccccc3)nc2c1	5.76	5.61	5.44	< 4.30
Clc1ccc(-c2nn(-c3ccccc3)cc2-c2nc3cc4ccccc4cc3[nH]2)cc1	5.11	4.86	5.09	< 4.30
Cc1cc2nc(-c3cn(-c4ccccc4)nc3-c3ccc(F)cc3)[nH]c2cc1C	< 4.30	4.57	4.99	< 4.30
Cc1ccc2[nH]c(-c3cn(-c4ccccc4)nc3-c3ccccc3)nc2c1	5.44	5.23	5.18	< 4.30
COc1ccc2[nH]c(-c3cn(-c4ccccc4)nc3-c3ccc(F)cc3)nc2c1	5.71	6.01	5.12	< 4.30
COc1ccc(-c2nn(-c3ccccc3)cc2-c2nc3cc(F)ccc3[nH]2)cc1	5.70	5.82	5.76	< 4.30
COc1ccc(-c2nn(-c3ccccc3)cc2-c2nc3cc(C)ccc3[nH]2)cc1	5.29	5.18	5.48	< 4.30
Clc1ccc(-c2nn(-c3ccccc3)cc2-c2nc3ccccc3[nH]2)cc1	5.22	5.52	5.78	< 4.30
Fc1ccc(-c2nn(-c3ccccc3)cc2-c2nc3cc(Br)ccc3[nH]2)cc1	5.23	5.49	5.31	4.66
COc1ccc(-c2nn(-c3ccccc3)cc2-c2nc3cc(OC)ccc3[nH]2)cc1	4.64	5.50	5.94	< 4.30
Fc1ccc(-c2nn(-c3ccccc3)cc2-c2nc3ccccc3[nH]2)cc1	5.82	5.49	5.63	< 4.30
COc1ccc2[nH]c(-c3cn(-c4ccccc4)nc3-c3ccc(Cl)cc3)nc2c1	5.62	5.75	5.44	< 4.30

Structure (SMILES)	pIC50 [1]	pIC50 [2]	pIC50 [3]	pIC50 [4]
Fc1ccc2[nH]c(-c3cn(-c4ccccc4)nc3-c3ccc(Cl)cc3)nc2c1	5.34	5.55	5.56	< 4.30
FC(F)(F)c1ccc2[nH]c(-c3cn(-c4ccccc4)nc3-c3ccc(Cl)cc3)nc2c1	5.47	5.38	5.35	4.38
COc1ccc(-c2nn(-c3ccccc3)cc2-c2nc3ccccc3[nH]2)cc1	5.63	5.60	5.44	< 4.30
FC(F)(F)c1ccc2[nH]c(-c3cn(-c4ccccc4)nc3-c3ccccc3)nc2c1	5.23	5.58	5.72	4.43
Clc1ccc(-c2nn(-c3ccccc3)cc2-c2nc3cc(Br)ccc3[nH]2)cc1	5.66	5.72	5.67	< 4.30
Clc1cc2nc(-c3cn(-c4ccccc4)nc3-c3ccccc3)[nH]c2cc1Cl	4.95	5.12	4.87	4.53
Fc1ccc(-c2nn(-c3ccccc3)cc2-c2nc3cc4ccccc4cc3[nH]2)cc1	4.67	5.03	4.63	< 4.30
O=c1[nH]cc(F)c(=O)[nH]1 [FLUOROURACIL]	5.67	5.63	5.34	4.82
Fc1ccc(-c2nn(-c3ccccc3)cc2-c2nc3cc(Cl)c(Cl)cc3[nH]2)cc1	4.80	5.16	4.94	4.35
Cc1ccc2[nH]c(-c3cn(-c4ccccc4)nc3-c3ccc(F)cc3)nc2c1	5.84	5.95	5.44	< 4.30
COc1ccc(-c2nn(-c3ccccc3)cc2-c2nc3cc(C(F)(F)F)ccc3[nH]2)cc1	5.32	5.24	5.56	< 4.30
Cc1cc2nc(-c3cn(-c4ccccc4)nc3-c3ccccc3)[nH]c2cc1C	4.84	< 4.30	4.38	< 4.30
Cc1cc2nc(-c3cn(-c4ccccc4)nc3-c3ccc(Cl)cc3)[nH]c2cc1C	4.75	4.89	4.66	< 4.30
c1ccc(-c2nn(-c3ccccc3)cc2-c2nc3cc4ccccc4cc3[nH]2)cc1	4.71	4.90	4.67	< 4.30
Fc1ccc(-c2nn(-c3ccccc3)cc2-c2nc3cc(Cl)ccc3[nH]2)cc1	5.88	5.65	5.56	< 4.30
COc1ccc(-c2nn(-c3ccccc3)cc2-c2nc3cc(C)c(C)cc3[nH]2)cc1	5.23	4.89	5.05	4.67
COc1ccc(-c2nn(-c3ccccc3)cc2-c2nc3cc(Cl)c(Cl)cc3[nH]2)cc1	5.13	4.88	5.18	< 4.30
Clc1ccc2[nH]c(-c3cn(-c4ccccc4)nc3-c3ccccc3)nc2c1	5.63	5.71	5.46	< 4.30
COc1ccc(-c2nn(-c3ccccc3)cc2-c2nc3cc(Cl)ccc3[nH]2)cc1	5.50	5.75	5.89	< 4.30
Fc1ccc(-c2nn(-c3ccccc3)cc2-c2nc3cc(C(F)(F)F)ccc3[nH]2)cc1	5.63	5.67	5.45	< 4.30
